Assay results published in patent US11981686B2, “Urea compound having substituent” (DAIICHI SANKYO COMPANY, LIMITED, priority 2019, dated 2024).

target: SIRT6 enzyme (Homo sapiens, UniProt Q8N6T7); assay: Measurement of deacetylation activity (SIRT6, AlphaLISA, H3K9(Ac) peptide); type: biochemical; settings: SIRT6 25 ng/mL, H3K9(Ac) biotin peptide 2 nM, NAD 10 μM, room temperature 30 minutes, duplicate
Summary of the method: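 Activation read as EC150, the concentration giving 150% activity relative to enzyme/no-enzyme DMSO controls, via variable-slope fit. Deacetylation of 2 nM biotinylated H3K9(Ac) peptide with 10 μM NAD+ by 25 ng/mL SIRT6 ran 30 min at room temperature, pH 8.0, then AlphaLISA detection of unmodified H3K9.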

Sequence of SIRT6 enzyme (Q8N6T7 whole entry, species assumed): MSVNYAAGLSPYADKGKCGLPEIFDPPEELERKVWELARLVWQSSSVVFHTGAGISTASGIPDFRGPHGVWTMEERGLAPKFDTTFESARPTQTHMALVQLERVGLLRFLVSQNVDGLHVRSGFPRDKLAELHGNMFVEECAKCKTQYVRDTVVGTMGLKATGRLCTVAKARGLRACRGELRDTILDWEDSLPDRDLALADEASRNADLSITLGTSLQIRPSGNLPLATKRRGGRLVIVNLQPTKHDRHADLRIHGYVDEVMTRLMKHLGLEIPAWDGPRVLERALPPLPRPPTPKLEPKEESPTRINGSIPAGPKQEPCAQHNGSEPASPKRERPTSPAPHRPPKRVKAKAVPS

Structure (SMILES) | EC150 (the concentration of the compound showing a relative enzyme activity of 150%) [μm]
O=C(Nc1nc2c(s1)[C@@H]1COC[C@H](C2)N1c1cc(-c2ccc(F)cc2)on1)N[C@H]1CC[C@H](O)CC1 [Example 159, N-{(4S,8S)-10-[5-(4-fluorophenyl)-1,2-oxazol-3-yl]-4,7,8,9-tetrahydro-5H-4,8-epiminooxocino[5,4-d][1,3]thiazol-2-yl}-N′-[(1r,4r)-4-hydroxycyclohexyl]urea] | 1.3
CNC(=O)Nc1nc2c(s1)C1CN(C(=O)OC)CC(C2)N1c1nc(C2CCC(F)(F)C2)no1 (stereo not drawn) [Example 131, Methyl 10-[3-(3,3-difluorocyclopentyl)-1,2,4-oxadiazol-5-yl]-2-[(methylcarbamoyl)amino]-4,7,8,9-tetrahydro-4,8-epimino[1,3]thiazolo[5,4-d]azocin-6(5H)-carboxylate] | 1.4
O=C(Nc1nc2c(s1)[C@@H]1COC[C@H](C2)N1c1cc(-c2ccc(F)cc2)on1)N[C@H]1CC[C@@H](O)CC1 [Example 61, N-{(4S,8S)-10-[5-(4-fluorophenyl)-1,2-oxazol-3-yl]-4,7,8,9-tetrahydro-5H-4,8-epiminooxocino[5,4-d][1,3]thiazol-2-yl}-N′-[(1s,4s)-4-hydroxycyclohexyl]urea] | 1.9
COCCNC(=O)Nc1nc2c(s1)CN(c1nc(C3CC(F)(F)CCO3)no1)CC2 (stereo not drawn) [Example 98, N-{5-[3-(4,4-difluorooxan-2-yl)-1,2,4-oxadiazol-5-yl]-4,5,6,7-tetrahydro[1,3]thiazolo[5,4-c]pyridin-2-yl}-N′-(2-methoxyethyl)urea] | 2.6
O=C(NCc1nnc[nH]1)Nc1nc2c(s1)CN(c1nc(C3CCC(F)(F)CC3)no1)CC2 [Example 102, N-{5-[3-(4,4-difluorocyclohexyl)-1,2,4-oxadiazol-5-yl]-4,5,6,7-tetrahydro[1,3]thiazolo[5,4-c]pyridin-2-yl}-N′-[(4H-1,2,4-triazol-3-yl)methyl]urea] | 0.33
CC(C)(O)CNC(=O)Nc1nc2c(s1)[C@@H]1COC[C@H](C2)N1c1cc(-c2ccc(F)cc2)on1 [Example 63, N-{(4S,8S)-10-[5-(4-fluorophenyl)-1,2-oxazol-3-yl]-4,7,8,9-tetrahydro-5H-4,8-epiminooxocino[5,4-d][1,3]thiazol-2-yl}-N′-(2-hydroxy-2-methylpropyl)urea] | 2.3
O=C(Nc1nc2c(s1)[C@@H]1COC[C@H](C2)N1c1nc(-c2ccc(F)cc2)no1)N[C@H]1C[C@@H](O)C1 [Example 85, N-{10-[3-(4-fluorophenyl)-1,2,4-oxadiazol-5-yl]-4,7,8,9-tetrahydro-5H-4,8-epiminooxocino[5,4-d][1,3]thiazol-2-yl}-N′-[(1s,3s)-3-hydroxycyclobutyl]urea] | 0.51
C[C@H](CO)NC(=O)Nc1nc2c(s1)[C@@H]1COC[C@H](C2)N1c1nc2cc(F)c(F)cc2o1 [Example 42, N-[(4S,8S)-10-(5,6-difluoro-1,3-benzoxazol-2-yl)-4,7,8,9-tetrahydro-5H-4,8-epiminooxocino[5,4-d][1,3]thiazol-2-yl]-N′-[(2R)-1-hydroxypropan-2-yl]urea] | 1.3
CNC(=O)Nc1nc2c(s1)C1COCC(C2)N1c1nnc(-c2cccc(C(F)F)c2)o1 (stereo not drawn) [Example 109, N-(10-{5-[3-(difluoromethyl)phenyl]-1,3,4-oxadiazol-2-yl}-4,7,8,9-tetrahydro-5H-4,8-epiminooxocino[5,4-d][1,3]thiazol-2-yl)-N′-methylurea] | 1.4
